Results reported in patent US8119675B2, “Benzimidazole derivatives” (Merck Patent GmbH, priority 2007, dated 2012).

Key:
SGLT1 = target: T1, SGLT1 (Homo sapiens, UniProt P13866); assay: 14C-AMG uptake in BHK cells transfected with SGLT1 (96-well cell-based assay); conditions: 50 μM AMG, 37° C., 90 min
T1 construct: expressed in transfected cells
T1 sequence (P13866 1-664): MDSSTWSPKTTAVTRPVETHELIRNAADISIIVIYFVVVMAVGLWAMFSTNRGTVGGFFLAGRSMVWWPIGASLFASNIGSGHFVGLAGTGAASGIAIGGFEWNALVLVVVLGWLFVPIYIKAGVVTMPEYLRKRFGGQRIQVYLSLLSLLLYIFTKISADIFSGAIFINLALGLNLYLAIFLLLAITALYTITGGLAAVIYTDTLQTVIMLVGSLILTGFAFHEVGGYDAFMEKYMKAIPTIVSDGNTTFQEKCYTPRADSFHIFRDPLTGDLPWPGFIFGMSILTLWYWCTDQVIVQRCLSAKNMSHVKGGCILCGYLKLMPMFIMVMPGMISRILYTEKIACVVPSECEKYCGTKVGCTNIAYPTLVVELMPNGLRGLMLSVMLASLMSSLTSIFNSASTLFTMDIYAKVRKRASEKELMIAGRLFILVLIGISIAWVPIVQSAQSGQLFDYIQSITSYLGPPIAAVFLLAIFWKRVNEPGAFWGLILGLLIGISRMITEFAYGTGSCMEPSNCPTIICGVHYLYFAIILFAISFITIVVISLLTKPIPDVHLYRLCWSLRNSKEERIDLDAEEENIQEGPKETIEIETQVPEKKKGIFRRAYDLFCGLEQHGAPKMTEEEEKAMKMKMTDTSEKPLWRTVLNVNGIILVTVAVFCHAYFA
Text: (§1) The compounds can be tested for their SGLT inhibition properties by means of BHK cells expressing SGLT1 and SGLT2. The production of the cells and the testing can be carried out as described below.
To construct the SGLT1 expression vector (KL225), the SLC5A1 gene (homologous to NM_000343) was amplified from a cDNA library using standard PCR technology and cloned over NheI/XhoI sites into the pcDNA3.1 expression vector (Invitrogen) containing neomycin as a selection marker. In this vector, transcription uses the enhancer/promoter of human cytomegalovirus.
(§2) The final vector KL225 together with an additional vector containing a dihydrofolate reductase gene as a selection marker was introduced into cells. Transfection into BHK21 cells (ATCC CCL-10), cultivated in DMEM medium (GIBCO/BRL), supplemented with 10% foetal calf serum (FCS) and 20 mM glutamine, was carried out using calcium phosphate transfections according to Graham, F. L. and van der Ebb, A. J. (1973), Virology 52: 456 with 5-20 μg of uncut plasmids for 10^7 cells. Stable transfectants were selected in medium containing 1 mg/ml of G418 (GIBCO/BRL) and 20-5000 nM methotrexate as final concentration, where only cells which expressed the neomycin gene and overexpressed the dhfr gene were able to grow. After growth for 2-3 weeks, the cells were cloned (0.5 cells/well) and the clones were investigated for SGLT expression in radioactivity uptake tests.
(§3) The uptake of ^14C-α-methyl-D-glucopyranoside (AMG) in, for example, Xenopus oocytes injected with the corresponding cRNA has been described in principle (for example Wen-Sen Lee et al. (1994), J. Biol. Chem. 269, 12032-12039; Guofeng You et al. (1995), J. Biol. Chem. 270, 29365-29371).
(§4) A 96-well cell-based assay was developed and adapted to HTS requirements:
(§5) BHK cells (transfected with SGLT1 or SGLT2) were seeded into 96-well microtitre plates (Cultureplates, Perkin Elmer). After at least 24 h, medium was removed, and the cell layer was washed with assay buffer (140 mM NaCl, 2 mM KCl, 1 mM CaCl2, 1 mM MgCl2, 10 mM HEPES, 5 mM Tris, adjusted to pH 7.4 using 1 M KOH). After addition of 40 μl of assay buffer, 50 μl of AMG (50 μM for SGLT1 and 2 mM for SGLT2) in the presence or absence of compounds, the cells were incubated in a total volume of 100 μl at 37° C. for 90 min. Supernatant was removed by suction and discarded. Cells were washed and lysed by addition of 50 μl of water. After 10 min at room temperature, 200 μl of Micrsoscint 40 (Perkin Elmer) were added. The radioactivity was counted in a Topcount microplate scintillation counter (Perkin Elmer). The non-specific uptake was determined in sodium-free assay buffer (266 mM sucrose, 2 mM KCl, 1 mM CaCl2, 1 mM MgCl2, 10 mM HEPES, 5 mM Tris, adjusted to pH 7.4 using 1 M KOH).

SGLT2 = target: T2, SGLT2 (Homo sapiens, UniProt P31639); assay: 14C-AMG uptake in BHK cells transfected with SGLT2 (96-well cell-based assay); conditions: 2 mM AMG, 37° C., 90 min
T2 construct: expressed in transfected cells
T2 sequence (P31639 1-672): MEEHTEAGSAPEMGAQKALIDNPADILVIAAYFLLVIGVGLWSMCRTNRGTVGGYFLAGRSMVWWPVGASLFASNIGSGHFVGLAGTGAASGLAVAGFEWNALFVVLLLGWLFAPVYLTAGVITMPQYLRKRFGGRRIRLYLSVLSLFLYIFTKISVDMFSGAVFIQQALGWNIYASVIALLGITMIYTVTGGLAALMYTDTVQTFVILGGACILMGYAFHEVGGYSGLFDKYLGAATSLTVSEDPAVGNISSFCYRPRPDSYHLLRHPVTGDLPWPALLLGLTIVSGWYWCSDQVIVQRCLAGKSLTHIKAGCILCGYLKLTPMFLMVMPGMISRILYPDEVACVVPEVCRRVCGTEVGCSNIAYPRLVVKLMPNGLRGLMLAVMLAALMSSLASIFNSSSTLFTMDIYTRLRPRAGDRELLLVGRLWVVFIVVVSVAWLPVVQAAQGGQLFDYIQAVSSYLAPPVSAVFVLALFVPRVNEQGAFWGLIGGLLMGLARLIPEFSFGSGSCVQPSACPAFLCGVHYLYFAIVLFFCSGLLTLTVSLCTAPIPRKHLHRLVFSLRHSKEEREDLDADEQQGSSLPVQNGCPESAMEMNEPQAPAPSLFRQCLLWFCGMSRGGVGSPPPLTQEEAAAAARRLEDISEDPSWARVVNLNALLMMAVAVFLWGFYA
Text: as §1
To construct the SGLT2 expression vector (KL224), the SLC5A2 gene (homologous to NM_003041) was amplified from a cDNA library using standard PCR technology and cloned over NheI/XhoI sites into PCI-neo expression vector (Promega) containing neomycin as a selection marker. In this vector, transcription uses the enhancer/promoter of human cytomegalovirus and the SV40 polyadenylation signal.
as §2, with “KL224” for “KL225”
as §3, §4, §5

SMILES	IC50 (SGLT1)	melting point	IC50 (SGLT2)
COc1cc(C)c(-c2nc3ccc(F)cc3n2Cc2c(C)cccc2C)c(OCC(N)=O)c1 [Compound A1, 2-{2-[1-(2,6-dimethylbenzyl)-6-fluoro-1H-benzimidazol-2-yl]-5-methoxy-3-methylphenoxy}acetamide]	> 10 µM	173 to 174 °C	0.01 to 1 µM
COc1cc(C)c(-c2nc3cc(F)c(F)cc3n2Cc2c(C)cccc2C)c(OCC(N)=O)c1 [Compound A28, 2-{2-[1-(2,6-Dimethylbenzyl)-5,6-difluoro-1H-benzimidazol-2-yl]-5-methoxy-3-methylphenoxy}acetamide]	> 10 µM	–	1 to 10 µM
COc1cccc(OCC(N)=O)c1-c1nc2ccccc2n1Cc1c(C)cccc1C [Compound A15, 2-{2-[1-(2,6-Dimethylbenzyl)-1H-benzimidazol-2-yl]-3-methoxyphenoxy}acetamide]	> 10 µM	–	0.01 to 1 µM
Cc1cccc(C)c1Cn1c(-c2ccccc2OC2CCNC2=O)nc2ccccc21 (stereo not drawn) [Compound A26, 3-{2-[1-(2,6-Dimethylbenzyl)-1H-benzimidazol-2-yl]phenoxy}pyrrolidin-2-one]	> 10 µM	–	1 to 10 µM
Cc1ccc(-c2nc3ccccc3n2Cc2c(C)cccc2C)c(OCC(N)=O)c1 [Compound A14, 2-{2-[1-(2,6-Dimethylbenzyl)-1H-benzimidazol-2-yl]-5-methylphenoxy}acetamide]	> 10 µM	–	0.01 to 1 µM
Cc1cccc(C)c1Cn1c(-c2ccccc2OCC(N)=O)nc2ccc(F)c(F)c21 [Compound A29, 2-{2-[1-(2,6-Dimethylbenzyl)-6,7-difluoro-1H-benzimidazol-2-yl]phenoxy}acetamide]	> 10 µM	–	1 to 10 µM
Cc1cc(C)c(Cn2c(-c3ccccc3OCC(N)=O)nc3ccc(F)cc32)c(C)c1 [Compound A6, 2-{2-[6-Fluoro-1-(2,4,6-trimethylbenzyl)-1H-benzimidazol-2-yl]phenoxy}acetamide]	> 10 µM	–	> 10 µM
NC(=O)COc1ccccc1-c1nc2ccccc2n1Cc1c(F)cccc1Cl [Compound A20, 2-{2-[1-(2-Chloro-6-fluorobenzyl)-1H-benzimidazol-2-yl]phenoxy}acetamide]	> 10 µM	–	1 to 10 µM
Cc1ccccc1Cn1c(-c2ccccc2OCC(N)=O)nc2ccccc21 [Compound A7, 2-{2-[1-(2-Methylbenzyl)-1H-benzimidazol-2-yl]-phenoxy}acetamide]	> 10 µM	–	1 to 10 µM
COc1cc(C)c(-c2nc3ccc(F)c(F)c3n2Cc2c(C)cccc2C)c(OCC(N)=O)c1 [Compound A30, 2-{2-[1-(2,6-Dimethylbenzyl)-6,7-difluoro-1H-benzimidazol-2-yl]-5-methoxy-3-methylphenoxy}acetamide]	1 to 10 µM	–	0.01 to 1 µM
